Patent US20230010299A1, “HETEROCYCLIC TRPML1 AGONISTS” (LIBRA THERAPEUTICS, INC., priority 2019, published 2023)

How the values were obtained:
[1] = system: autophagy reporter Rosella (LC3 tag) in HeK293 cell line; experiment: Autophagy assay (reporter Rosella, imaging); type: cell-based; details: Homo sapiens; HeK293 cells stably expressing reporter Rosella; 18 hours incubation; reference Torin-1 1 μM as max signal; read-out: Secondary Assays Autophagy qAC50
Method: Buffers and Reagents • Tyrode's buffer with 2 mM Ca^2+ in-house solution (130 mM NaCl, 5 mM KCl, 2 mM CaCl2), 1 mM MgCl2, 5 mM NaHCO3, 20 mM HEPES in water at pH 7.4; sterile filtered) • DMSO (Sigma) • Bis-benzimide H 33342 trihydrochloride (Hoechst 33342; Sigma-Aldrich) • Reference molecule (agonist): Torin-1, (#4247, Tocris) stock 1.2 mM in DMSO, stored at −20° C.
Reporter of Autophagy and Cell Line
Reporter Rosella: a fluorescent-based chimera constitutes by two fluorescent proteins, Green and Red variants, acting as a bimodal indicator of pH. […] The reporter is fused to sequence for autophagosome localization (LC3 tag).
The reporter Rosella have been stably expressed in HeK293 cell line and used as read-out.
Experiments have been performed in 384 MTP poly-lysine coated well format. Cells have been seeded in 384-w at a density of 6000 cells/well in 25 μl/well complete growth medium without antibiotics. Twenty-four hours later, cells have been treated with compounds and incubated for further 18 hours. Then the cells have been imaged and assayed for the response to various compounds using the reporter for autophagy expressed in the cells as readout.
The experiments were performed in a 384-well format according to the following procedure: • 24 h after seeding, cells were incubated with compounds at the desired concentration, and with the reference molecule (agonist) Torin-1 at a top concentration of 1 μM (max signal), for 18 hours at 37° C. and 5% CO2. The final percentage of DMSO was 0.3% in all the conditions. • Then the culture medium was carefully removed to avoid cells detachment and to discard red phenol into the medium and that can interfere with the measurements. • Staining of the nuclei was obtained by incubating the cells with 8 μM/well of Hoechst 3342 in standard Tyrode's buffer for 20 min at RT • Then the cells were carefully washed two times with standard Tyrode's buffer • Finally, the samples were acquired by recording three fluorescence emission channels (green, red and blue) at 20× magnification and with at least 3-4 fields of view per well in an Operetta CLS microscope (PerkinElmer). • Image analysis was performed by using Harmony software (PerkinElmer). The image analysis involved the following steps: flat-field illumination correction, nuclei segmentation, cell segmentations and identification of vesicles/granules within the cytosol compartments and representing the autophagy vesicles. Measurements of signal intensity ratio (Green to Red) and number of autophagy vesicles per cells were used to obtain information on the effects of compounds on the autophagy flux. • Data from image analysis measurements were finally loaded and analyzed for normalization and fitting procedures in Genedata Screener© software.

TRPML1 = target: T1, TRPML1 (Homo sapiens, UniProt Q9GZU1); experiment: TRPML1 manual patch clamp on isolated enlarged endolysosomes; type: cell-based; details: whole-endolysosome recording, HEK T-REx/GcaMP6f/TRPML1 cells, luminal pH 4.6
T1 construct: expressed in transfected cells
T1 sequence (Q9GZU1 whole entry): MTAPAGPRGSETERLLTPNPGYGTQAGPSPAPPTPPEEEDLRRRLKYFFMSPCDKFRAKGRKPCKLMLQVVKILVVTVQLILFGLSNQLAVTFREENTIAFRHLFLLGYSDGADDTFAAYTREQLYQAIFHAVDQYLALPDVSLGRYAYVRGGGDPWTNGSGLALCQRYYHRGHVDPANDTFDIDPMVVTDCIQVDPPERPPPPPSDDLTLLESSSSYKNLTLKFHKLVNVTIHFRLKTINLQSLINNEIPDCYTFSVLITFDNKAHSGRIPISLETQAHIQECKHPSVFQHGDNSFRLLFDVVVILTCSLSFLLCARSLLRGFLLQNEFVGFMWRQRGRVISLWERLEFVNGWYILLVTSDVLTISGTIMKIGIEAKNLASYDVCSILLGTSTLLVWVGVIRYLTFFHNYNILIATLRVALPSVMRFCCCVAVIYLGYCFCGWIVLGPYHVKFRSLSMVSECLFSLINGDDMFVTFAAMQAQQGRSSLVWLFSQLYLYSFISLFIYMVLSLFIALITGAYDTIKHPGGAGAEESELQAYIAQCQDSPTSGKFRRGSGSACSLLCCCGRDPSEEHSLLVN
Method: TRPML1 —Manual Patch Clamp
Endolysosomal electrophysiology was performed in isolated enlarged endolysosomes using a modified patch-clamp method (Dong et al., 2010). HEK T-REx/GcaMP6f/TRPML1 cells were treated with […] PIKfive inhibitor overnight. Whole-endolysosome recordings were performed on manually isolated enlarged endolysosomes (Dong et al., 2010). In brief, a patch pipette was pressed against a cell and quickly pulled away to slice the cell membrane. Enlarged endolysosomes were released into a dish and a gigaseal between the patch pipette and the enlarged endolysosome was obtained. Negative pressure or voltage steps of several hundred millivolts with millisecond duration were then applied to break into the vacuolar membrane.
Bath (internal/cytoplasmic) solution contained 140 mM K-gluconate, 4 mM NaCl, 1 mM EGTA, 2 mM MgCl2, 0.39 mM CaCl2), 20 mM HEPES (pH was adjusted with KOH to 7.2). The pipette (luminal) solution was standard extracellular solution (modified Tyrode's: 145 mM NaCl, 5 mM KCl, 2 mM CaCl2), 1 mM MgCl2, 10 mM HEPES, 10 mM MES, 10 mM glucose; the pH was adjusted with NaOH to pH 4.6).
Dilution from stock were prepared just before the experiments in the extracellular solution (0.1% final DMSO concentration). DMSO solution was obtained from AppliChem (cat. A3672).
All bath solutions were applied via a perfusion system that allowed us to achieve complete solution exchange within a few seconds.
Data were collected using an HEKA EPC 10 patch-clamp amplifier, and PatchMaster v2x73.5 software (HEKA Elektronik). Whole-endolysosome currents were digitized at 20 kHz. All experiments were conducted at room temperature, and all recordings were analyzed with pClamp 10.7 (Molecular Devices) and GraphPad Prism (V8.00).
TRPML1 current was evoked using the voltage protocol illustrated in FIG. 3, applied every 5 sec. (10 ms at −80 mV; 500 ms ramp from −120 to +40 mV; 10 ms at −80 mV); in the absence (vehicle period, i.e. 0.1% DMSO) and in the presence of the compound (agonist) under investigation.

SMILES	EC50 [1] [nM]	Lysosomal Patch-Clamp Current fold increase Mean ± SEM (n) (TRPML1; 2.0 uM compound)	Lysosomal Patch-Clamp Current fold increase Mean ± SEM (n) (TRPML1; 30.0 uM compound)
CN(C)S(=O)(=O)c1ccc(S(=O)(=O)NC2CCCCC2N2CCC(Oc3ccccc3)CC2)cc1 (racemic) [Example 57, N1,N1-dimethyl-N4-[2-(4-phenoxypiperidin-1-yl)cyclohexyl]benzene-1,4-disulfonamide]	1800	18.0 ± 8.5 (3)	
CN(C)S(=O)(=O)c1ccc(S(=O)(=O)Nc2ccccc2N2CCCCC2)cc1 [Example 6, N1,N1-dimethyl-N4-[2-(piperidin-1-yl)phenyl]benzene-1,4-disulfonamide]	4400	3.3 ± 0.67 (3)	
CN(C)S(=O)(=O)c1ccc(S(=O)(=O)Nc2ccccc2N2CCN(C(=O)OC(C)(C)C)CC2)cc1 [Example 13, tert-butyl 4-{2-[4-(dimethylsulfamoyl)benzenesulfonamido]phenyl}piperazine-1-carboxylate]	520		27.5 ± 10.8 (2)
CN(C)S(=O)(=O)c1ccc(S(=O)(=O)Nc2ccccc2N2CCC(Oc3ccccn3)CC2)cc1 [Example 75, N1,N1-dimethyl-N4-{2-[4-(pyridin-2-yloxy)piperidin-1-yl]phenyl}benzene-1,4-disulfonamide]	170		
CN(C)S(=O)(=O)c1ccc(S(=O)(=O)Nc2ccccc2N2CCC(C(=O)OC(C)(C)C)CC2)cc1 [Example 76, f-butyl 1-{2-[4-(dimethylsulfamoyl)benzenesulfonamido]phenyl}piperidine-4-carboxylate]	59		
CN(C)S(=O)(=O)c1ccc(S(=O)(=O)Nc2ccccc2N2CCC(Oc3cnccn3)CC2)cc1 [Example 77, N1,N1-dimethyl-N4-{2-[4-(pyrazin-2-yloxy)piperidin-1-yl]phenyl} benzene-1,4-disulfonamide]	250		
